From ChEMBL document CHEMBL5126551, “Spiral molecules with antimalarial activities: A review” (Eur J Med Chem, 2022) come the findings set out here.

≈ marks a conversion by molar mass, not a printed value.

Data set [1] deals with Plasmodium falciparum. In words: Antimalarial activity against chloroquine resistant Plasmodium falciparum FcR3 assessed as inhibition of parasite growth measured after 48 hrs by classical radioactive microdilution method. Format: functional, organism-based. The settings on record: FcR3, 48 h.
For data set [2], the system named is Plasmodium falciparum. In words: Antimalarial activity against highly chloroquine resistant Plasmodium falciparum FcM29 assessed as inhibition of parasite growth measured after 48 hrs by classical radioactive microdilution method. In kind it is functional, organism-based. The conditions noted are these: FcM29, 48 h.
For data set [3], the system named is Plasmodium falciparum. In words: Antimalarial activity against chloroquine-resistant Plasmodium falciparum W2 assessed as inhibition of parasite growth. Format: functional, organism-based.
Data set [4] has as its system Plasmodium falciparum. In words: Antimalarial activity against Plasmodium falciparum K1 assessed as inhibition of parasite growth incubated for 72 hrs by DAPI-staining based microscopic analysis. In kind it is functional, organism-based. The conditions noted are these: K1, 72 h.
The test system of data set [5] is Plasmodium falciparum. In words: Antimalarial activity against Plasmodium falciparum NF54 assessed as inhibition of parasite growth incubated for 72 hrs by DAPI-staining based microscopic analysis. Format: functional, organism-based. The conditions noted are these: NF54, 72 h.
In data set [6] the test system is Plasmodium falciparum. The data set can be described thus: Antimalarial activity against chloroquine resistant Plasmodium falciparum K1 infected in human erythrocyte assessed as inhibition of parasite growth preincubated with compound for 24 hrs followed by hypoxanthine addition and measured after 24 hrs by [3H]-hypoxanthine incorporation based liquid scintillation counter. Format: functional, organism-based.

Data set [7] deals with Plasmodium falciparum. The data set can be described thus: Antimalarial activity against chloroquine sensitive Plasmodium falciparum 3D7 infected in human erythrocyte assessed as inhibition of parasite growth preincubated with compound for 24 hrs followed by hypoxanthine addition and measured after 24 hrs by [3H]-hypoxanthine incorporation based liquid scintillation counter. The conditions noted are these: 3D7, Erythrocyte. Format: functional, organism-based.

For data set [8], the system named is Plasmodium berghei. In words: Antimalarial activity against Plasmodium berghei GFP ANKA infected in NMRI mouse assessed as reduction in blood parasitemia level measured on day 4 by FACS analysis. Format: functional, organism-based. Background: Flow cytometry measures light scatter and fluorescence of single cells or particles in a stream.
In data set [9] the test system is Plasmodium falciparum. In words: Antimalarial activity against chloroquine-resistant Plasmodium falciparum K1 infected in human erythrocytes incubated for 72 hrs by parasite lactate dehydrogenase assay. The settings on record: K1, Erythrocyte. In kind it is functional, organism-based.
The nature of data set [10]: Cytotoxicity against human MRC5 cells assessed as inhibition of cell growth incubated for 7 days by MTT assay. Format: toxicity, cell-based. In general terms: Tetrazolium dyes change colour on reduction, which living cells bring about.
In data set [11] the test system is Plasmodium falciparum. The data set can be described thus: Antimalarial activity against chloroquine and antifolate resistant Plasmodium falciparum K1 infected in human erythrocyte preincubated for 24 hrs followed by hypoxanthine addition and measured after 18 to 20 hrs by [3H]-hypoxanthine incorporation assay. In kind it is functional, organism-based.
Data set [12] has as its system Plasmodium falciparum. In words: Antimalarial activity against chloroquine and quinine sensitive Plasmodium falciparum assessed as inhibition of parasite growth. In kind it is functional, organism-based.
For data set [13], the system named is Plasmodium falciparum. The data set can be described thus: Antimalarial activity against chloroquine resistant Plasmodium falciparum K1 assessed as inhibition of parasite growth by [3H]-hypoxanthine incorporation assay. In kind it is functional, organism-based.
Data set [14] deals with Plasmodium falciparum. The data set can be described thus: Antimalarial activity against chloroquine sensitive Plasmodium falciparum NF54 assessed as inhibition of parasite growth by [3H]-hypoxanthine incorporation assay. In kind it is functional, organism-based.
The nature of data set [15]: Metabolic stability in Sprague-Dawley rat assessed as AUC(0 to infinity) of 97-63 metabolite by LC-MS/MS analysis. In kind it is ADME. The arrangement: time infinity.
Data set [16] can be described thus: Metabolic stability in Sprague-Dawley rat assessed as half-life of 97-63 metabolite by LC-MS/MS analysis. Format: ADME.
Data set [17] is described as follows: Metabolic stability in Sprague-Dawley rat assessed as Tmax of 97-63 metabolite by LC-MS/MS analysis. In kind it is ADME.
The nature of data set [18]: Apparent oral volume of distribution in Sprague-Dawley rat by LC-MS/MS analysis. In kind it is ADME. The settings on record: in vivo.
Data set [19] can be described thus: Metabolic stability in Sprague-Dawley rat assessed as AUC(0 to t) of 97-63 metabolite by LC-MS/MS analysis. In kind it is ADME.
Data set [20] is described as follows: Metabolic stability in Sprague-Dawley rat assessed as Cmax of 97-63 metabolite by LC-MS/MS analysis. Format: ADME.
Data set [21] has as its system Plasmodium falciparum. In words: Antimalarial activity against Plasmodium falciparum K1 assessed as inhibition of parasite growth. Format: functional, organism-based.
For data set [22], the system named is Plasmodium berghei. The data set can be described thus: Antiplasmodial activity against luciferase expressing hepatic stage Plasmodium berghei sporozoites infected in human Huh-7 cells assessed as inhibition of parasite infection preincubated with cells for 1 hrs followed by parasite infection and measured after 48 hrs by bioluminescence assay. In kind it is functional, organism-based.

Data set [23] has as its system Plasmodium falciparum. In words: Antimalarial activity against chloroquine-sensitive Plasmodium falciparum 3D7 infected in human erythrocyte assessed as inhibition of parasite growth incubated for 66 hrs by [3H]-hypoxanthine incorporation assay based liquid scintillation spectrometric method. Format: functional, organism-based. The settings on record: 3D7, Erythrocyte.

The subject of data set [24] is Plasmodium falciparum. In words: Antimalarial activity against chloroquine-resistant Plasmodium falciparum K14 infected in human red blood cells assessed as inhibition of parasite growth incubated for 42 hrs by [3H]-hypoxanthine incorporation assay. Format: functional, organism-based, Red blood cell. The conditions noted are these: K14, Erythrocyte.
The test system of data set [25] is Plasmodium falciparum. In words: Antimalarial activity against chloroquine-resistant Plasmodium falciparum FCR3 infected in human erythrocytes assessed as inhibition of parasite growth incubated for 48 hrs by [3H]-hypoxanthine incorporation assay. In kind it is functional, organism-based.
In data set [26] the test system is Plasmodium falciparum. In words: Antimalarial activity against chloroquine-sensitive Plasmodium falciparum 3D7 infected in human erythrocytes assessed as inhibition of parasite growth incubated for 48 hrs by parasite lactate dehydrogenase based colorimetric assay. Format: functional, organism-based. The settings on record: 3D7, 48 h.

What is called IC50 is the concentration at which inhibition is half-maximal. As to `CC1(C)COC2(CCC(NC3CCC(Nc4ccnc5cc(Cl)ccc45)CC3)CC2)OO1` (stereo not given), the 50% inhibitory concentration (IC50) in the data set with Plasmodium falciparum [1] was determined as 0.012 µM; in the data set with Plasmodium falciparum [2] it was 0.01 µM.
For `COC(=O)C1=CO[C@@H](C)[C@@H]2CN3CC[C@@]4(C(=O)Nc5ccccc54)[C@H]3C[C@H]12`, the half-maximal inhibitory concentration (IC50) in the data set on Plasmodium falciparum [3] stood at 17000 ng/mL (≈ 46200 nM).
On to `O=C1OC[C@H](CN2C3=C4C(=O)c5ccccc5C4C[C@@H]4CO[C@@]3(O4)c3ccccc32)O1` (stereo not given in full), for which the IC50 in the data set with Plasmodium falciparum [4] and with Plasmodium falciparum [5] was 0.009 µM in each case.
As to `CN1CCN(C2CCN(C(=O)CC3CCC4(CC3)OOC3(OO4)C4CC5CC(C4)CC3C5)CC2)CC1` (stereo not given), in the data set with Plasmodium falciparum [6], the IC50 is 0.0011 µM. Besides, in the data set with Plasmodium falciparum [7], the IC50 is 0.0008 µM. In the data set with Plasmodium berghei [8], the EC50 turned out to be 1.33 mg/kg and the EC90 was 4.18 mg/kg.
In the case of `COc1cc2c(cc1O)CCN1CC=C3C=C[C@H](OC)C[C@]321` [ERYSODINE], in the data set on Plasmodium falciparum [9], half-maximal inhibition (IC50) was put at 6.5 µM. Also, the IC50 at 7 days in data set [10] is over 64 µM.
With `C=CCN1C(=O)[C@@]2(c3ccccc31)C(c1ccccc1)C=CN1N3C=CC=CC3C(=O)[C@@]12C/C=C/c1ccccc1` (stereo not given in full), the IC50 in the data set with Plasmodium falciparum [11] was 8.3 µM.
As to `CC(C)OC(=O)C1=C2N=C(c3cccnc3)NN2C2=C(C(=O)CCC2)C12C(=O)Nc1ccc(F)cc12` (stereo not given), in the data set with Plasmodium falciparum [12], the IC50 worked out at 0.454 µM.
As to `c1cc(C2CCC3(CC2)OOC2(O3)C3CC4CC(C3)CC2C4)ccc1OCCN1CCOCC1` (stereo not given), the IC50 in the data set on Plasmodium falciparum [13] and with Plasmodium falciparum [14] was 2.8 ng/mL (≈ 5.96 nM) in each case.
As a reminder, the AUC is concentration integrated over time. Broadly, the Tmax is the time from dosing to the highest level. For orientation: Vd/F means the volume of distribution divided by bioavailability. The term Cmax denotes the peak of the concentration-time curve. For the molecule `C=C(c1ccc(OC(C)(C)COC(=O)CCC(=O)O)cc1)C1OCC2(OO1)C1CC3CC(C1)CC2C3` (stereo not given), in [15], the exposure (AUC) is 9150 ng·h/mL. In [16], the t1/2 is 9.27 h. In [17], the Tmax was 2.2 h. Besides, the Vd/F in data set [18] turned out to be 7.81 L/kg. Also, the AUCt in [19] was 9100 ng·h/mL. The Cmax in [20] is 1350 ng/mL.
For `COC(=O)C12C=C(OC)[C@@]3(Cl)C(C)(C=C(C4=C[C@H](O)[C@@H]5O[C@]5(CC=C(C)C)[C@@H]4O)[C@@]3(O)C13OC(=O)c1c(O)cc(C)cc1O3)C2` (stereo not given in full), in the data set with Plasmodium falciparum [21], the IC50 came to 5.73 µM.
On to `CC(C)(C)C(=O)C1C(c2ccccc2)(c2ccccc2)N=NC12C(=O)N1[C@@H](C(=O)OC(c3ccccc3)c3ccccc3)C(C)(C)S[C@@H]12` (stereo not given in full), for which the IC50 in the data set with Plasmodium berghei [22] was determined as 3.32 µM.
With `CCCCCCCCCCCCCCC[C@@H](O)CC1(OC)CCC2(C=CC(=O)C=C2)O1` (stereo not given in full), the IC50 in the data set with Plasmodium falciparum [23] came to 0.48 µM.
For `CCOc1ccc(N2C(=O)C3(c4ccccc4Cc4ccccc43)C23c2ccccc2-c2ccccc23)cc1`, the IC50 with Plasmodium falciparum [24] turned out to be 5 µM.
Consider `COc1cc([C@@H]2c3cc(Cl)ccc3NC3(C(=O)Nc4ccccc43)[C@H]2C)ccc1O` (stereo not given in full), for which the IC50 in the data set on Plasmodium falciparum [25] came to 1.67 µM; with Plasmodium falciparum [26], 1.8 µM.
For `CC(C)(C)OC(=O)C1C(c2ccccc2)(c2ccccc2)C12C(=O)N1[C@@H](C(=O)OC(c3ccccc3)c3ccccc3)C(C)(C)S[C@@H]12` (stereo not given in full), in the data set with Plasmodium berghei [22], the IC50 was 2.67 µM.
In the case of `CC(C)OC(=O)C1=C2N=C(c3ccncc3)NN2C2=C(C(=O)CCC2)C12C(=O)Nc1ccccc12` (stereo not given), the IC50 with Plasmodium falciparum [12] was determined as 0.246 µM.
On to `COc1cc2c(cc1O)[C@]13C[C@@H](OC)C=CC1=CCN3CC2` [ERYSOVINE], for which, in the data set on Plasmodium falciparum [9], the midpoint of inhibition, the IC50, lay at 4.1 µM. For the same molecule, the IC50 at 7 days in data set [10] was over 64 µM.
Take `COc1cc([C@@H]2c3cc(Br)ccc3NC3(C(=O)Nc4ccccc43)[C@H]2C)ccc1O` (stereo not given in full): the figures for the 50% inhibitory concentration (IC50) in the data set on Plasmodium falciparum [25] and in the data set with Plasmodium falciparum [26] were 1.52 µM and 1.31 µM, respectively.
As for `C=CCOc1c2n(c3ccccc13)C=CC[C@@]21C(=O)c2ccccc2N1CC=C`, the IC50 with Plasmodium falciparum [4] and in the data set with Plasmodium falciparum [5] was at least 5 µM in each case.
